What was measured:
NIH3T3 cells = experiment: Metabolic labeling with [^3H]GCV, NIH3T3 cell clones; type: cell-based, murine; conditions: 3T3
Method: For metabolic labeling, cells (1-2×10^6) were labeled in triplicate with 2 μCi [^3H]GCV ([…]) for 18 hours, then nucleotides were extracted from pelleted cells in 0.2 ml 70% methanol at 4° C. for 15 minutes as previously described (21, 24). An aliquot of each methanol soluble supernatant was analyzed for radioactivity by scintillation counting. The methanol insoluble pellets, representative of a crude DNA fraction, were resuspended in 0.15 ml water and also counted for radioactivity. For deoxpyrimidines, cells were grown to confluency in 60 cm^2 plates, and either 2 μCi [^3H]thymidine (2 μM final) or 2 μCi [^3H]dC (10 μM final) were added for 1 or 2 hours respectively prior to extraction in 70% methanol. Methanol-soluble extracts were concentrated by evaporation under nitrogen, and separated on PEI-cellulose thin layer chromatography plates developed in 0.8 M LiCl for GCV or 0.35 M LiCl for thymidine/dC as previously described (21).
NIH3T3 fibroblasts and the human tumor cell line HCT-116 were transfected with wild-type HSV-1TK or with one of three site specific mutants of amino acid Gln-125. From a panel of multiple HSV-1TK expressing clones, a subset of clones from each cell line expressing wild-type HSV-1 TK, the Asn-125 HSV-1 TK mutant (Asn-125TK) and the Glu-125 HSV-1 TK mutant (Glu-125TK) were selected for comparatively equivalent levels of HSV-1 TK protein expression based on Western blot determinations. In this study, these two sets of HSV-1 TK-expressing NIH 3T3 and HCT-116 cell lines were evaluated for intracellular metabolism of [^3H]GCV, [^3H]thymidine, or [^3H]dC. Cells were labeled with [^3H]GCV for 18 hours, then nucleotides were extracted in ice-cold 70% methanol as previously described (21, 24). The data in Table 3 summarize the amount of total nucleotide metabolites isolated in the methanol-soluble extracts (pmol/10^6 cells) as well as the total amount of methanol-insoluble metabolites representative of incorporation into DNA. The Asn-125TK metabolizes GCV at (or near) equal levels to the wild-type HSV-TK in both cell lines. The methanol-insoluble data, while only a crude indicator of [^3H]GCV incorporation into DNA, reflects the numbers obtained with the soluble extracts. As compared with the non-HSV-TK-expressing HCT-116 cells and consistent with data in the previous study (24), minimal [^3H]GCV metabolism was detected in the Asp-125TK cells and these cells were not further evaluated.
The methanol-soluble metabolites were further separated into their constituent phosphorylated GCV metabolites by thin layer chromatography (21). As presented in Table 4, the predominant metabolite in each HSV-TK-expressing cell line was GCVTP. In both HCT-116 and NIH3T3 cell lines, the Asn-125TK cells indicated slightly higher levels of GCVTP as compared to wild-type HSV-1 TK cell lines. […] This difference in the levels of GCVTP in the two Glu-125TK expressing cell lines could explain the lack of sensitivity to GCV killing observed for the NIH3T3 Glu-125TK cell lines.

HCT-116 cells = experiment: DAPI-staining of apoptotic cells; type: cell-based, human; conditions: 25 μM GCV, 36 or 84 hrs, FIG. 7
Method: The HCT-116 cells expressing wild-type HSV-1 TK (FIG. 7A), Asn-125TK (FIG. 7B), or Glu-125TK (FIG. 7C) were grown on chamber slides and incubated with 25 μM GCV for 36 or 84 hours. Control cultures for each cell line without GCV addition (top row) were evaluated after 84 hours. At the indicated time point, cells were fixed in methanol, stained with DAPI, and nuclei visualized by fluorescent microscopy. Each image is magnified 40×.
Parental HCT-116 cells and each HSV-1 TK expressing cell line were plated (5×10^4 cells/well) in 8-well plastic chamber slides (Lab-Tek) and treated plus or minus 25 mM GCV for 36 or 84 hrs. At either time point, cells were washed with phosphate-buffered saline followed by staining in 1 μg/ml DAPI (4′,6′-diamidine-2′-phenylindoledihydrochloride) in 100% methanol at 37° C. for 10 min. After rinsing, the stained cells were visualized with a Zeiss flourescent microscope at 40× magnification with a DAPI-specific filter.

HSV-1 TK = experiment: Substrate screen: phosphorylation of thymidine, TMP, GCV, ACV, dC, AZT by partially purified HSV-1 TKs; type: biochemical, herpes simplex virus type 1; conditions: for Product formation ACVMP: substrate ACV 50 μM; for Product formation AZTMP: substrate AZT 200 μM; for Product formation GCVMP: substrate GCV 50 μM; for Product formation TDP (TMPK activity): substrate TMP 20 μM; for Product formation dCMP: substrate dC 200 μM; for Product formation TMP: substrate thymidine 4 μM
Method: The activity of the purified HSV-1 TK was determined using the following standard reaction mixture for thymidine as a substrate (12): 3 μg of protein, 4 μM [^3H-methyl]thymidine (0.1 mCi/mmol), 20 mM potassium phosphate, pH 7.6, 1 mM DTT, 5 mM ATP, 5 mM MgCl2, 25 mM NaF, 40 mM KCl, and 0.5 mg/ml BSA in a total volume of 25 μl for 10 minutes at 37° C. To identify phosphorylated products, 20 μl of the reaction mixture was loaded onto a DE-81 filter and dried, washed once in 1 mM ammonium formate, twice more in 95% ethanol, and counted for radioactivity (12). Radioactivity was determined using an LKB 1214 Rackbeta liquid scintillation counter and corrected for background using controls with enzyme incubated in the absence of ATP. For TMPK activity, 20 μM [^3H-methyl]TMP was substituted for thymidine in the above assay mixture, and [^3H]TDP product was determined by separation from [^3H]TMP on thin layer PEI-cellulose plates developed in 0.35M LiCl (21). Amount of product converted to TDP was quantitated by scintillation counting of the excised TMP and TDP spots. The filter binding assay was used to quantitate the phosphorylation of [^3H]dC (200) μM and [^3H]AZT (200 μM) with the four enzymes. To compare relative enzymatic activities for [^3H]GCV (50 μM) and [^3H]ACV (50 μM), reactions were loaded onto small DE-52 columns packed in Pasteur pipettes as previously described (22).
As an initial screen for activity, each expressed HSV-1 TK enzyme was assayed for phosphorylation of the following substrates: thymidine (4 μM), TMP (20 μM), ACV (50 μM), GCV (50 μM), deoxycytidine (dC, 200 μM), or 3′-azido-2′,3′dideoxythymidine (AZT, 200 μM). Enzymatic conditions for optimal wild-type HSV-1 TK activities were utilized, thus results presented in Table 1 for each substrate were normalized to 100% values for comparative purposes. As expected, the wild-type Gln-125 HSV-1 TK efficiently phosphorylated each of these substrates. For each mutant, there was a striking decrease in their ability to phosphorylate pyrimidine nucleosides, and minimal TMPK activity for the TMP substrate.

Substance	Phosphorylated metabolite GCVDP (NIH3T3 cells) [pmol/10^6 cells]	Phosphorylated metabolite GCVMP (NIH3T3 cells) [pmol/10^6 cells]	Phosphorylated metabolite GCVTP (NIH3T3 cells) [pmol/10^6 cells]	Nuclear morphology of DAPI-stained nuclei after GCV (HCT-116 cells)	Product formation ACVMP (HSV-1 TK)	Product formation AZTMP (HSV-1 TK)	Product formation GCVMP (HSV-1 TK)	Product formation TDP (TMPK activity) (HSV-1 TK)	Product formation dCMP (HSV-1 TK)	Product formation TMP (HSV-1 TK)	Metabolism of GCV and ACV (in words) (HSV-1 TK; GCV 50 μM, ACV 50 μM)
Gln-125 (WT): wild-type herpes simplex virus type 1 thymidine kinase with glutamine at position 125, parent enzyme [reference compound]	22	12	232	progressive increases in condensed and fragmented nuclei characteristic of apoptosis	100 % of wild-type Gln-125	100 % of wild-type Gln-125	100 % of wild-type Gln-125	100 % of wild-type Gln-125	100 % of wild-type Gln-125	100 % of wild-type Gln-125	
Asn-125	21	11	272	progressive increases in condensed and fragmented nuclei characteristic of apoptosis	92 % of wild-type Gln-125	9 % of wild-type Gln-125	85 % of wild-type Gln-125	6 % of wild-type Gln-125	0.2 % of wild-type Gln-125	22 % of wild-type Gln-125	retained most of these phosphorylation activities
Glu-125	0	0	1.6	fewer swelled nuclei and little evidence of apoptotic nuclei	7 % of wild-type Gln-125	48 % of wild-type Gln-125	5 % of wild-type Gln-125	7 % of wild-type Gln-125	0.2 % of wild-type Gln-125	43 % of wild-type Gln-125	

— patent publication US6610289B2, “Mutated herpes simplex virus type 1 thymidine kinases and uses thereof” (The Board of Trustees of the University of Arkansas, priority 1998, dated 2003)
